Source: ChEMBL document CHEMBL4725318, “New vinyl-1,2,4-triazole derivatives as antimicrobial agents: Synthesis, biological evaluation and molecular docking studies” (2020)
Values after ≈ are worked out from the molar mass of the structure shown.

Legend:
Type in all cases: functional
Penicillium ochrochloron [1] = experiment: Antifungal activity Penicillium ochrochloron by microdilution method
Talaromyces funiculosus [2] = experiment: Antifungal activity Penicillium funiculosum by microdilution method
[3] = test system: Pectobacterium carotovorum; experiment: Antibacterial activity against Erwinia carotovora by microdilution method
Aspergillus versicolor [4] = experiment: Fungicidal activity Aspergillus versicolor
Aspergillus fumigatus [5] = experiment: Fungicidal activity Aspergillus fumigatus
Aspergillus ochraceus [6] = experiment: Antifungal activity Aspergillus ochraceus by microdilution method
Xanthomonas campestris [7] = experiment: Antibacterial activity against Xanthomonas campestris by microdilution method
Talaromyces funiculosus [8] = experiment: Fungicidal activity Penicillium funiculosum
Erwinia amylovora [9] = experiment: Bactericidal activity against Erwinia amylovora
Trichoderma viride [10] = experiment: Antifungal activity Trichoderma viride by microdilution method
Trichoderma viride [11] = experiment: Fungicidal activity Trichoderma viride
Pseudomonas fluorescens [12] = experiment: Bactericidal activity against Pseudomonas fluorescens
Aspergillus niger [13] = experiment: Antifungal activity Aspergillus niger by microdilution method
Bacillus subtilis [14] = experiment: Bactericidal activity against Bacillus subtilis
Aspergillus fumigatus [15] = experiment: Antifungal activity Aspergillus fumigatus by microdilution method
Aspergillus versicolor [16] = experiment: Antifungal activity Aspergillus versicolor by microdilution method
[17] = test system: Pectobacterium carotovorum; experiment: Bactericidal activity against Erwinia carotovora
Erwinia amylovora [18] = experiment: Antibacterial activity against Erwinia amylovora by microdilution method
Xanthomonas campestris [19] = experiment: Bactericidal activity against Xanthomonas campestris
Pseudomonas fluorescens [20] = experiment: Antibacterial activity against Pseudomonas fluorescens by microdilution method
Penicillium cyclopium [21] = experiment: Fungicidal activity Penicillium verrucosum var. cyclopium
Aspergillus ochraceus [22] = experiment: Fungicidal activity Aspergillus ochraceus
Penicillium ochrochloron [23] = experiment: Fungicidal activity Penicillium ochrochloron
Penicillium cyclopium [24] = experiment: Antifungal activity Penicillium verrucosum var. cyclopium by microdilution method
Bacillus subtilis [25] = experiment: Antibacterial activity against Bacillus subtilis by microdilution method
Aspergillus niger [26] = experiment: Fungicidal activity Aspergillus niger

Row | Structure (SMILES) | MIC (Penicillium ochrochloron [1]) [µM] | MIC (Talaromyces funiculosus [2]) [µM] | MIC [3] [µM] | MIC (Aspergillus ochraceus [6]) [µM] | MIC (Xanthomonas campestris [7]) [µM] | MIC (Trichoderma viride [10]) [µM] | MIC (Aspergillus niger [13]) [µM] | MIC (Aspergillus fumigatus [15]) [µM] | MIC (Aspergillus versicolor [16]) [µM] | MIC (Erwinia amylovora [18]) [µM] | MIC (Pseudomonas fluorescens [20]) [µM] | MFC (Aspergillus versicolor [4]) [µM] | MFC (Aspergillus fumigatus [5]) [µM] | MFC (Talaromyces funiculosus [8]) [µM] | MBC (Erwinia amylovora [9]) [µM] | MFC (Trichoderma viride [11]) [µM] | MBC (Pseudomonas fluorescens [12]) [µM] | MBC (Bacillus subtilis [14]) [µM] | MBC [17] [µM] | MBC (Xanthomonas campestris [19]) [µM] | further results
1 | O=C(/C(=C/c1cc([N+](=O)[O-])ccc1O)n1cncn1)c1ccc(Cl)cc1 | 100 (≈ 37.1 µg/mL) | 150 (≈ 55.6 µg/mL) | 2.7 (≈ 1 µg/mL) | 100 (≈ 37.1 µg/mL) | 1.3 (≈ 0.482 µg/mL) | 100 (≈ 37.1 µg/mL) | 150 (≈ 55.6 µg/mL) | 200 (≈ 74.2 µg/mL) | 100 (≈ 37.1 µg/mL) | 2.7 (≈ 1 µg/mL) | 1.3 (≈ 0.482 µg/mL) | 200 (≈ 74.2 µg/mL) | 410 (≈ 152 µg/mL) | 200 (≈ 74.2 µg/mL) | 2.7 (≈ 1 µg/mL) | 200 (≈ 74.2 µg/mL) | 2.7 (≈ 1 µg/mL) | 2.7 (≈ 1 µg/mL) | 2.7 (≈ 1 µg/mL) | 2.7 (≈ 1 µg/mL) | MFC (Penicillium cyclopium [21]): 410 µM (≈ 152 µg/mL); MFC (Aspergillus ochraceus [22]): 200 µM (≈ 74.2 µg/mL); MFC (Penicillium ochrochloron [23]): 200 µM (≈ 74.2 µg/mL); MIC (Penicillium cyclopium [24]): 200 µM (≈ 74.2 µg/mL); MIC (Bacillus subtilis [25]): 2.7 µM (≈ 1 µg/mL); MFC (Aspergillus niger [26]): 200 µM (≈ 74.2 µg/mL)
2 | O=C(/C(=C/c1cccc(O)c1)n1cncn1)c1ccccc1 | 260 (≈ 75.7 µg/mL) | 260 (≈ 75.7 µg/mL) | 1.7 (≈ 0.495 µg/mL) | 190 (≈ 55.3 µg/mL) | 1.7 (≈ 0.495 µg/mL) | 190 (≈ 55.3 µg/mL) | 520 (≈ 151 µg/mL) | 380 (≈ 111 µg/mL) | 260 (≈ 75.7 µg/mL) | 1.7 (≈ 0.495 µg/mL) | 1.7 (≈ 0.495 µg/mL) | 520 (≈ 151 µg/mL) | 520 (≈ 151 µg/mL) | 520 (≈ 151 µg/mL) | 3.4 (≈ 0.99 µg/mL) | 260 (≈ 75.7 µg/mL) | 1.7 (≈ 0.495 µg/mL) | 6.9 (≈ 2.01 µg/mL) | 1.7 (≈ 0.495 µg/mL) | 3.4 (≈ 0.99 µg/mL) | MFC (Penicillium cyclopium [21]): 520 µM (≈ 151 µg/mL); MFC (Aspergillus ochraceus [22]): 520 µM (≈ 151 µg/mL); MFC (Penicillium ochrochloron [23]): 520 µM (≈ 151 µg/mL); MIC (Penicillium cyclopium [24]): 380 µM (≈ 111 µg/mL); MIC (Bacillus subtilis [25]): 6.9 µM (≈ 2.01 µg/mL); MFC (Aspergillus niger [26]): 100 µM (≈ 29.1 µg/mL)

Second part, led by results:

Row | MIC (Penicillium ochrochloron [1]) [µM] | MIC (Talaromyces funiculosus [2]) [µM] | MIC [3] [µM] | MIC (Aspergillus ochraceus [6]) [µM] | MIC (Xanthomonas campestris [7]) [µM] | MIC (Trichoderma viride [10]) [µM] | MIC (Aspergillus niger [13]) [µM] | MIC (Aspergillus fumigatus [15]) [µM] | MIC (Aspergillus versicolor [16]) [µM] | MIC (Erwinia amylovora [18]) [µM] | MIC (Pseudomonas fluorescens [20]) [µM] | Structure (SMILES) | MFC (Aspergillus versicolor [4]) [µM] | MFC (Aspergillus fumigatus [5]) [µM] | MFC (Talaromyces funiculosus [8]) [µM] | MBC (Erwinia amylovora [9]) [µM] | MFC (Trichoderma viride [11]) [µM] | MBC (Pseudomonas fluorescens [12]) [µM] | MBC (Bacillus subtilis [14]) [µM] | MBC [17] [µM] | MBC (Xanthomonas campestris [19]) [µM] | further results
3 | 160 (≈ 55.1 µg/mL) | 220 (≈ 75.7 µg/mL) | 2.9 (≈ 0.998 µg/mL) | 100 (≈ 34.4 µg/mL) | 2.9 (≈ 0.998 µg/mL) | 50 (≈ 17.2 µg/mL) | 160 (≈ 55.1 µg/mL) | 160 (≈ 55.1 µg/mL) | 80 (≈ 27.5 µg/mL) | 2.9 (≈ 0.998 µg/mL) | 2.9 (≈ 0.998 µg/mL) | O=C(/C(=C/c1ccccc1)n1cncn1)c1ccc(Cl)cc1Cl | 220 (≈ 75.7 µg/mL) | 220 (≈ 75.7 µg/mL) | 440 (≈ 151 µg/mL) | 2.9 (≈ 0.998 µg/mL) | 100 (≈ 34.4 µg/mL) | 2.9 (≈ 0.998 µg/mL) | 5.8 (≈ 2 µg/mL) | 5.8 (≈ 2 µg/mL) | 2.9 (≈ 0.998 µg/mL) | MFC (Penicillium cyclopium [21]): 440 µM (≈ 151 µg/mL); MFC (Aspergillus ochraceus [22]): 220 µM (≈ 75.7 µg/mL); MFC (Penicillium ochrochloron [23]): 440 µM (≈ 151 µg/mL); MIC (Penicillium cyclopium [24]): 220 µM (≈ 75.7 µg/mL); MIC (Bacillus subtilis [25]): 2.9 µM (≈ 0.998 µg/mL); MFC (Aspergillus niger [26]): 220 µM (≈ 75.7 µg/mL)
4 | 130 (≈ 51.3 µg/mL) | 180 (≈ 71 µg/mL) | 2.5 (≈ 0.986 µg/mL) | 130 (≈ 51.3 µg/mL) | 5.1 (≈ 2.01 µg/mL) | 90 (≈ 35.5 µg/mL) | 250 (≈ 98.6 µg/mL) | 250 (≈ 98.6 µg/mL) | 250 (≈ 98.6 µg/mL) | 2.5 (≈ 0.986 µg/mL) | 2.5 (≈ 0.986 µg/mL) | CN(C)c1ccc(/C=C(/C(=O)c2ccc(-c3ccccc3)cc2)n2cncn2)cc1 | 510 (≈ 201 µg/mL) | 510 (≈ 201 µg/mL) | 250 (≈ 98.6 µg/mL) | 2.5 (≈ 0.986 µg/mL) | 130 (≈ 51.3 µg/mL) | 2.5 (≈ 0.986 µg/mL) | 5.1 (≈ 2.01 µg/mL) | 5.1 (≈ 2.01 µg/mL) | 5.1 (≈ 2.01 µg/mL) | MFC (Penicillium cyclopium [21]): 510 µM (≈ 201 µg/mL); MFC (Aspergillus ochraceus [22]): 250 µM (≈ 98.6 µg/mL); MFC (Penicillium ochrochloron [23]): 250 µM (≈ 98.6 µg/mL); MIC (Penicillium cyclopium [24]): 250 µM (≈ 98.6 µg/mL); MIC (Bacillus subtilis [25]): 2.5 µM (≈ 0.986 µg/mL); MFC (Aspergillus niger [26]): 510 µM (≈ 201 µg/mL)
5 | 100 (≈ 35.5 µg/mL) | 140 (≈ 49.7 µg/mL) | 1.3 (≈ 0.461 µg/mL) | 70 (≈ 24.8 µg/mL) | 1.3 (≈ 0.461 µg/mL) | 70 (≈ 24.8 µg/mL) | 140 (≈ 49.7 µg/mL) | 100 (≈ 35.5 µg/mL) | 100 (≈ 35.5 µg/mL) | 1.3 (≈ 0.461 µg/mL) | 0.6 (≈ 0.213 µg/mL) | O=C(/C(=C/c1ccc([N+](=O)[O-])cc1)n1cncn1)c1ccc(Cl)cc1 | 190 (≈ 67.4 µg/mL) | 190 (≈ 67.4 µg/mL) | 190 (≈ 67.4 µg/mL) | 1.3 (≈ 0.461 µg/mL) | 100 (≈ 35.5 µg/mL) | 1.3 (≈ 0.461 µg/mL) | 1.3 (≈ 0.461 µg/mL) | 1.3 (≈ 0.461 µg/mL) | 1.3 (≈ 0.461 µg/mL) | MFC (Penicillium cyclopium [21]): 190 µM (≈ 67.4 µg/mL); MFC (Aspergillus ochraceus [22]): 100 µM (≈ 35.5 µg/mL); MFC (Penicillium ochrochloron [23]): 190 µM (≈ 67.4 µg/mL); MIC (Penicillium cyclopium [24]): 140 µM (≈ 49.7 µg/mL); MIC (Bacillus subtilis [25]): 1.3 µM (≈ 0.461 µg/mL); MFC (Aspergillus niger [26]): 190 µM (≈ 67.4 µg/mL)
6 | 30 (≈ 9.01 µg/mL) | 40 (≈ 12 µg/mL) | 0.4 (≈ 0.12 µg/mL) | 20 (≈ 6.01 µg/mL) | 0.8 (≈ 0.24 µg/mL) | 30 (≈ 9.01 µg/mL) | 20 (≈ 6.01 µg/mL) | 20 (≈ 6.01 µg/mL) | 40 (≈ 12 µg/mL) | 0.4 (≈ 0.12 µg/mL) | 3.3 (≈ 0.991 µg/mL) | CC(C)CC(=O)/C(=C/c1ccc([N+](=O)[O-])cc1)n1cncn1 | 60 (≈ 18 µg/mL) | 30 (≈ 9.01 µg/mL) | 60 (≈ 18 µg/mL) | 0.8 (≈ 0.24 µg/mL) | 60 (≈ 18 µg/mL) | 3.3 (≈ 0.991 µg/mL) | 0.8 (≈ 0.24 µg/mL) | 0.8 (≈ 0.24 µg/mL) | 0.8 (≈ 0.24 µg/mL) | MFC (Penicillium cyclopium [21]): 60 µM (≈ 18 µg/mL); MFC (Aspergillus ochraceus [22]): 30 µM (≈ 9.01 µg/mL); MFC (Penicillium ochrochloron [23]): 60 µM (≈ 18 µg/mL); MIC (Penicillium cyclopium [24]): 40 µM (≈ 12 µg/mL); MIC (Bacillus subtilis [25]): 0.8 µM (≈ 0.24 µg/mL); MFC (Aspergillus niger [26]): 30 µM (≈ 9.01 µg/mL)
